Measurements published in the CheMixHub viscosity set.
Several values for one entry are separate records, joined by “and”; a condition that tells them apart may be missing. Identical values can stand only once.

Assay: xn = mol fraction of the nth substance listed

CCOCCOCCOCC + COC(=O)OC
viscosity [mPa·s], 101.33 kPa
Conditions	298.15 K	308.15 K	318.15 K
x1 = 0.0109	0.604	0.532	0.48
x1 = 0.0541	0.641	0.563	0.502
x1 = 0.0935	0.677	0.593	0.523
x1 = 0.1383	0.718	0.624	0.546
x1 = 0.1877	0.76	0.654	0.571
x1 = 0.2422	0.808	0.689	0.604
x1 = 0.3409	0.886	0.752	0.651
x1 = 0.4435	0.959	0.811	0.697
x1 = 0.5274	1.021	0.855	0.727
x1 = 0.6085	1.072	0.894	0.761
x1 = 0.7154	1.136	0.942	0.798
x1 = 0.8183	1.189	0.986	0.831
x1 = 0.9068	1.229	1.019	0.857
x1 = 0.9643	1.258	1.037	0.872

c1ccc2c(c1)CCCC2 + COC(C)(C)C
303.15 K, 101 kPa
Conditions	viscosity [mPa·s]
x2 = 0.1289	1.534
x2 = 0.1851	1.432
x2 = 0.2839	1.253
x2 = 0.3506	1.136
x2 = 0.4458	0.983
x2 = 0.5017	0.903
x2 = 0.6257	0.737
x2 = 0.7392	0.606
x2 = 0.8539	0.486
x2 = 0.9246	0.37

COC(=O)c1ccccc1 + CC(C)O
viscosity [mPa·s], 101 kPa
Conditions	x1 = 0.0634	x1 = 0.1321	x1 = 0.2069	x1 = 0.2887	x1 = 0.3784	x1 = 0.4773	x1 = 0.5868	x1 = 0.7089	x1 = 0.8456
303.15 K	1.655	1.656	1.658	1.659	1.661	1.663	1.664	1.666	1.668
308.15 K	1.495	1.495	1.496	1.496	1.497	1.498	1.498	1.499	1.5
313.15 K	1.323	1.326	1.33	1.335	1.339	1.344	1.35	1.356	1.363
318.15 K	1.189	1.196	1.204	1.212	1.221	1.231	1.242	1.254	1.267
323.15 K	1.074	1.085	1.097	1.11	1.123	1.14	1.157	1.177	1.198

Oc1cccc(Cl)c1 + CCO
Conditions	viscosity [mPa·s]
298.15 K, 101 kPa, x1 = 0.5	1.45

C[C@H](N)C(=O)N[C@@H](C)C(=O)O + O
viscosity [mPa·s], 101 kPa
Conditions	x1 = 3.87e-05	x1 = 7.58e-05	x1 = 0.000107	x1 = 0.00015	x1 = 0.000172	x1 = 0.0002106	x1 = 0.0002561	x1 = 0.0002871	x1 = 0.0003202	x1 = 0.0003571
305.15 K	0.7669	0.7674	0.7681	0.7688	0.7719	0.7741	0.7782	0.7795	0.7798	0.7828
310.15 K	0.7029	0.7032	0.7033	0.7061	0.7067	0.7084	0.7089	0.7115	0.7139	0.7167
315.15 K	0.6416	0.6452	0.6473	0.6487	0.6499	0.6499	0.6519	0.6548	0.6573	0.6608

COC(=O)c1ccccc1 + CO
viscosity [mPa·s], 101.33 kPa
Conditions	x1 = 0.0499	x1 = 0.0999	x1 = 0.2	x1 = 0.3001	x1 = 0.4001	x1 = 0.4999	x1 = 0.5999	x1 = 0.65	x1 = 0.8001	x1 = 0.9001
293.15 K	0.653	0.721	0.86	0.997	1.133	1.263	1.395	1.461	1.673	1.834
298.15 K	0.608	0.67	0.796	0.918	1.041	1.156	1.273	1.331	1.518	1.66
303.15 K	0.568	0.625	0.738	0.849	0.958	1.062	1.167	1.22	1.387	1.511
308.15 K	0.531	0.584	0.686	0.786	0.886	0.98	1.075	1.122	1.272	1.385
313.15 K	0.499	0.547	0.64	0.732	0.822	0.907	0.993	1.036	1.173	1.275

CCCCCCCCN(CCCCCCCC)CCCCCCCC + CCCCCCO
Conditions	viscosity [mPa·s]
298 K, 101.3 kPa, x1 = 0.00638	4.722

CCCCOCCO + CCCCCC
viscosity [mPa·s], 101 kPa
Conditions	303.15 K	313.15 K
x1 = 0.0327	0.292	0.258
x1 = 0.1014	0.354	0.31
x1 = 0.1974	0.456	0.396
x1 = 0.2974	0.587	0.506
x1 = 0.395	0.741	0.634
x1 = 0.4968	0.93	0.787
x1 = 0.5957	1.148	0.956
x1 = 0.7323	1.507	1.23
x1 = 0.8316	1.793	1.458
x1 = 0.8992	2.025	1.634
x1 = 0.9658	2.271	1.79

C=CC(=O)OC(C)(C)C + CC#N
viscosity [mPa·s], 100 kPa
Conditions	293.15 K	298.15 K	303.15 K	308.15 K	313.15 K	318.15 K
x2 = 0.0772	0.8592	0.787	0.72	0.664	0.6141	0.571
x2 = 0.1496	0.8154	0.7472	0.684	0.631	0.5837	0.5427
x2 = 0.2216	0.7728	0.7087	0.6493	0.5994	0.5548	0.5161
x2 = 0.2983	0.7282	0.6684	0.6132	0.5668	0.5252	0.489
x2 = 0.3643	0.6903	0.6344	0.5828	0.5393	0.5003	0.4663
x2 = 0.4345	0.6506	0.5988	0.5511	0.5107	0.4745	0.4426
x2 = 0.5074	0.61	0.5624	0.5187	0.4816	0.4481	0.4186
x2 = 0.5769	0.5719	0.5284	0.4885	0.4544	0.4236	0.3963
x2 = 0.6465	0.5345	0.495	0.459	0.4278	0.3997	0.3746
x2 = 0.7141	0.4991	0.4635	0.4312	0.403	0.3775	0.3546
x2 = 0.7821	0.4645	0.4329	0.4044	0.3793	0.3565	0.3358
x2 = 0.8603	0.4264	0.3994	0.3753	0.354	0.3344	0.3164
x2 = 0.9345	0.3923	0.3699	0.3502	0.3324	0.3162	0.301

COC(=O)c1ccccc1 + CS(C)=O
303.15 K, 101 kPa
Conditions	viscosity [mPa·s]
x1 = 0.1946	1.757
x1 = 0.2734	1.752
x1 = 0.3608	1.751
x1 = 0.4584	1.751
x1 = 0.5683	1.723
x1 = 0.6931	1.682

CCCCOCCO + OCCOCCO
101 kPa
Conditions	viscosity [mPa·s]
293.15 K, x1 = 0.0527	34.87
293.15 K, x1 = 0.1006	31.53
293.15 K, x1 = 0.1978	25.56
293.15 K, x1 = 0.2838	21.2
293.15 K, x1 = 0.3994	16.51
293.15 K, x1 = 0.4508	14.78
293.15 K, x1 = 0.5016	13.23
293.15 K, x1 = 0.5487	11.92
293.15 K, x1 = 0.5792	11.12
293.15 K, x1 = 0.6735	8.899
293.15 K, x1 = 0.7975	6.435
293.15 K, x1 = 0.8946	4.816
293.15 K, x1 = 0.9556	3.894
298.15 K, x1 = 0.0486	27.11
298.15 K, x1 = 0.0983	24.47
298.15 K, x1 = 0.2015	19.76
298.15 K, x1 = 0.2993	16.07
298.15 K, x1 = 0.3999	12.89
298.15 K, x1 = 0.4504	11.5
298.15 K, x1 = 0.4981	10.3
298.15 K, x1 = 0.5447	9.244
298.15 K, x1 = 0.5844	8.422
298.15 K, x1 = 0.6781	6.756
298.15 K, x1 = 0.7974	5.096
298.15 K, x1 = 0.8989	3.946
298.15 K, x1 = 0.9494	3.392
303.15 K, x1 = 0.0465	19.89
303.15 K, x1 = 0.0998	17.79
303.15 K, x1 = 0.2008	14.36
303.15 K, x1 = 0.2979	11.66
303.15 K, x1 = 0.4002	9.382
303.15 K, x1 = 0.4487	8.472
303.15 K, x1 = 0.491	7.751
303.15 K, x1 = 0.5513	6.832
303.15 K, x1 = 0.6	6.167
303.15 K, x1 = 0.7032	4.949
303.15 K, x1 = 0.8025	3.971
303.15 K, x1 = 0.8829	3.29
303.15 K, x1 = 0.9536	2.765

CCCCNCCO + CCCCOCCO
viscosity
Conditions	293.15 K	298.15 K	303.15 K	308.15 K	313.15 K	318.15 K	323.15 K
101.3 kPa, x1 = 0.404	7.13 mPa·s	5.95 mPa·s	5.02 mPa·s	4.27 mPa·s	3.67 mPa·s	3.18 mPa·s	2.77 mPa·s
101.3 kPa, x1 = 0.604	10.3 mPa·s	8.4 mPa·s	6.94 mPa·s	5.8 mPa·s	4.89 mPa·s	4.17 mPa·s	3.58 mPa·s
101.33 kPa, x1 = 0.1	3.94 mPa·s and 3.941 mPa·s	3.4 mPa·s and 3.405 mPa·s	2.96 mPa·s and 2.963 mPa·s	2.6 mPa·s and 2.598 mPa·s	2.29 mPa·s and 2.294 mPa·s	2.04 mPa·s and 2.038 mPa·s	1.82 mPa·s and 1.821 mPa·s
101.33 kPa, x1 = 0.2	4.813 mPa·s	4.111 mPa·s	3.541 mPa·s	3.075 mPa·s	2.69 mPa·s	2.369 mPa·s	2.099 mPa·s
101.33 kPa, x1 = 0.3	5.87 mPa·s and 5.865 mPa·s	4.95 mPa·s and 4.952 mPa·s	4.22 mPa·s and 4.221 mPa·s	3.63 mPa·s and 3.629 mPa·s	3.15 mPa·s and 3.146 mPa·s	2.75 mPa·s and 2.746 mPa·s	2.41 mPa·s and 2.414 mPa·s
101.33 kPa, x1 = 0.4	7.135 mPa·s	5.951 mPa·s	5.019 mPa·s	4.272 mPa·s	3.669 mPa·s	3.176 mPa·s	2.77 mPa·s
101.33 kPa, x1 = 0.5	8.57 mPa·s and 8.573 mPa·s	7.07 mPa·s and 7.072 mPa·s	5.9 mPa·s and 5.901 mPa·s	4.98 mPa·s and 4.975 mPa·s	4.24 mPa·s and 4.236 mPa·s	3.64 mPa·s and 3.638 mPa·s	3.15 mPa·s and 3.149 mPa·s
101.33 kPa, x1 = 0.6	10.3 mPa·s	8.404 mPa·s	6.94 mPa·s	5.796 mPa·s	4.891 mPa·s	4.166 mPa·s	3.58 mPa·s
101.33 kPa, x1 = 0.7	12.21 mPa·s	9.853 mPa·s	8.056 mPa·s	6.668 mPa·s	5.582 mPa·s	4.719 mPa·s	4.027 mPa·s
101.33 kPa, x1 = 0.8	14.41 mPa·s	11.5 mPa·s	9.314 mPa·s	7.641 mPa·s	6.345 mPa·s	5.326 mPa·s	4.514 mPa·s
101.33 kPa, x1 = 0.9	16.91 mPa·s	13.36 mPa·s	10.72 mPa·s	8.718 mPa·s	7.183 mPa·s	5.985 mPa·s	5.042 mPa·s

CCOC(=O)CCl + OCc1ccccc1
viscosity [mPa·s], 101.3 kPa
Conditions	x1 = 0.1072	x1 = 0.2035	x1 = 0.2998	x1 = 0.395	x1 = 0.5	x1 = 0.5984	x1 = 0.6981	x1 = 0.7972	x1 = 0.8941
298.15 K	4.078	3.295	2.729	2.285	1.923	1.669	1.459	1.326	1.188
303.15 K	3.567	2.887	2.428	2.036	1.747	1.516	1.334	1.209	1.092
308.15 K	3.058	2.48	2.127	1.815	1.572	1.365	1.209	1.093	0.997
